Measurements: patent US8673866B2, “Stabilized formulation for oral administration of therapeutic agents and related methods” (The University of British Columbia, priority 2009, dated 2014)
Several values for one entry are separate records, joined by “and”; a condition that tells them apart may be missing. Identical values can stand only once.

Tests used:
[1] = oral; cited from earlier work
Leishmania = details: visceral leishmaniasis, IV administration; cited from earlier work
[2] = crystalline; cited from earlier work
Leishmania donovani LV82 = assay: Visceral leishmaniasis-infected murine model (liver LDU, BALB/c mice); format: in vivo
Protocol: (§1) To determine the anti-leishmanial activity of a representative oral AmpB formulation, the following studies were completed. BALB/c mice were intravenously infected with 5×10^7 Leishmania donovani LV82 promastigotes (obtained by culturing amastigotes taken directly from the spleen of an infected hamster) seven days prior to treatment. Following the seven days, mice were either administered five daily doses of miltefosine at 3 mg/kg po, or Formulation A at 2.5, 5, and 10 mg/kg po bid for five consecutive days or 20 mg/kg po qd for five consecutive days. Appropriate vehicle controls were also assessed. Animals were sacrificed 14 days post infection and Leishman-Donovan units (LDU) were assessed in livers of mice post mortem via microscopic enumeration of Giemsa-stained liver smears

[3] = Body and organ weights in the murine VL model; format: in vivo, BALB/c mice
Protocol: as §1

[4] = 3 mg/kg p.o. qd, individual mice

| SMILES | bioavailability [1] | cure rate (Leishmania) [%] | solubility in water [2] | LDU mean ± SD (Leishmania donovani LV82; 3 mg/kg p.o. qd, group mean (n=4)) | LDU (Leishmania donovani LV82; [4]) | # of amastigotes per 200 nuclei (Leishmania donovani LV82; 3 mg/kg p.o. qd, liver smears, individual mice) | % Reduction compared to Vehicle control (Average) (Leishmania donovani LV82; 3 mg/kg, p.o. qd) [%] | % Reduction compared to water control (Average) (Leishmania donovani LV82; 3 mg/kg, p.o. qd) [%] | inhibition of liver parasites (Leishmania donovani LV82; five daily doses at 3 mg/kg po) [%] | Body Weight [3, 4] | Mean Body Weight Post-treatment ([3]; 3 mg/kg, p.o. qd) [g] | Mean Body Weight Pre-treatment ([3]; 3 mg/kg, p.o. qd) [g] |
| --- | --- | --- | --- | --- | --- | --- | --- | --- | --- | --- | --- | --- |
| C[C@@H]1[C@H](O)[C@@H](C)/C=C/C=C/C=C/C=C/C=C/C=C/C=C/[C@H](O[C@@H]2O[C@H](C)[C@@H](O)[C@H](N)[C@@H]2O)C[C@@H]2O[C@](O)(C[C@@H](O)C[C@@H](O)[C@H](O)CC[C@@H](O)C[C@@H](O)CC(=O)O[C@H]1C)C[C@H](O)[C@H]2C(=O)O (relative stereo) [amphotericin B, [1R-(1R*,3S*,5R*,6R*,9R*,11R*,15S*,16R*,17R*,18S*,19E,21E,23E,25E, 27E,29E,31E,33R*,35S*,36R*,37S,)]-33-[(3-amino-3,6-dideoxy-β-D-mannopyranosyl)oxy]1,3,5,6,9,11,17,37-octahydroxy-15,16,18-trimethyl-13-oxo-14,39-dioxabicyclo-[33.3.1]nonatriaconta-19,21,23,25,27,29,31-heptaene-36-carboxylic acid] | negligible | 97 | insoluble | – | – | – | – | – | – | – | – | – |
| CCCCCCCCCCCCCCCCOP(=O)([O-])OCC[N+](C)(C)C [Miltefosine, miltefosine] | – | – | – | 1537.604 | 1581.58 and 1431.131 and 1736.921 and 1400.783 | 286 and 283 and 301 and 262 | 51.7 | 49.3 | 47.5±7.0 | 19.8 g (2×) and 18.8 g and 18.5 g | 19.2 | 19.3 |
